These results are taken from patent publication US6686444B2, “Osteopontin derived chemotactic peptides and methods of use” (Children's Medical Center Corporation, priority 1996, dated 2004).

The subject of one experiment is osteosarcoma cells. The experiment is described as follows: Modified Boyden chamber chemotaxis of osteosarcoma cells. It counts as cell-based. The note with it: for Chemotactic activity (in words): osteosarcoma cells. How it is done:
Purified OPN (˜0.5 mg) was digested with trypsin (2% w/w) in 0.2 ml of 50 mM NH4HCO3, pH 8.0, for 20 hours at 37° C. before treatment of the reaction products with 50 μl of 100% H2O+0.1% trifluoroacidic acid (TFA) and resolution of the peptides by HPLC chromatography on C-18 column (25×0.46 cm). After injection the column was washed for 10 min, followed by linear gradient elution from 100% H2O+0.1% TFA to 60% CH3CN+0.55% TFA over 120 min, with a second gradient from 60% CH3CN to 80% CN3CN over 30 min at a flow rate of 0.5 ml/min. The absorbance at 219 nm was recorded continuously by an on-line chart recorder/integrator using Gilson HM Holochrome detector, and fractions of 0.5 ml were collected. Each peak was then tested for mediation of chemotaxis or for its ability to inhibit OPN mediated chemotaxis using the chemotactic assay described in Example 4 below. Furthermore, each peak was also tested for its ability to promote attachment of CD44^+ or αvβx cells.
Positive peaks from tryptic digest were sequenced by gas-phase automated sequenator. Chemotactic peptides corresponding to the positive sequences were synthesized and the resulting synthetic peptides were then tested for their ability to promote either chemotaxis or to inhibit the chemotaxis to OPN as described in Example 4. Chemical synthesis of peptides provides a convenient method to test the sequence specificity and minimal length of the chemotactic peptides.
In a modified Boyden chamber, both surfaces of polycarbonate filters (pore size, 8 μm) were coated with gelatin (100 μg/ml, overnight) before 1×10^3 osteosarcoma cells were added in 500 μl to the upper chamber and incubated at 37° C. in the presence or absence of chemotactic agents in the lower chamber. After two hours, the membranes were fixed in methanol and stained with hematoxilin/toluidine blue. Responding cells on the lower surface of the filter were counted microscopically and evaluated in triplicates. Random migration was assessed by counting the number of cells that migrated to the lower surface of the filter when excess chemotactic molecule was added to the upper chamber.

A further experiment deals with peritoneal exudate cells. Nature of the experiment: In vivo cellular migration into the peritoneum after intraperitoneal injection (peritoneal exudate, flow cytometry). More on the design: species or system Mice. As for the experimental part:
Mice were injected intraperitoneally with varying dosages of K7 osteosarcoma-derived osteopontin. All injection volumes were 200 μl. Injections of vehicle alone (PBS) served as negative controls and vehicle plus 20 μg lipopolysaccharide (LPS) injections served as positive controls for elicitation of peritoneal exudates.
Mice were sacrificed by CO2-asphyxiation at varying times following injection. Immediately after sacrifice, peritoneal exudate was recovered by intraperitoneal injection and recovery of 10 mL PBS. The lavage procedure was performed twice on each mouse. Following this, red blood cells were lysed by hypotonic lysis with ACK lysis buffer (0.15 M NH4Cl, 1.0 mM KHCO3, 0.1 mM Na2EDTA, pH 7.4) for 5 minutes at room temperature, and the preparation was washed in DMEM, 5% FBS. Cells were resuspended in DMEM, 5% FBS for fluorescent antibody staining.
Each sample of cells to be analyzed for specific surface markers was suspended in DMEM, 5% FBS at a concentration of 0.2 to 1 million cells in 50 μl. Fluorescence-labeled antibodies were added at 1 μg/1×10^6 cells, and incubated with the cells for 30 minutes at 4° C. Samples were washed twice with 200 μl of PBS following antibody staining and fixed with 500 μl of 2% paraformaldehyde in PBS. Peritoneal exudate cells were analyzed by dual-color flow cytometry for expression of CD44 (PE), CD11b (Mac-1, FITC, macrophage marker), B220 (FITC, B-cell marker), and CD3 (FITC, T-cell marker). All antibodies were purchased from PharMingen and flow cytometric analysis was done using a Coulter EPICS flow cytometer. Controls for non-specific binding and single color controls were included.
(In general: In flow cytometry, cells or beads pass a laser one at a time.)

[1] abbreviates: Table 2, substance in lower chamber, upper chamber OPN.
The mark [2] stands for this setting: Table 2, substance in lower chamber, upper chamber PBS.
The mark [3] stands for this setting: Table 2, substance in lower chamber, upper chamber SP64.
[4] abbreviates: Table 2, substance in lower chamber, upper chamber peptide 51.
[5] abbreviates: Table 2, substance in upper chamber, lower chamber PBS.
Setting [6] is: Table 3, substance in lower chamber, upper chamber Ab64.
Where [7] appears, read: Table 3, substance in lower chamber, upper chamber OPN.
The mark [8] stands for this setting: Table 3, substance in lower chamber, upper chamber PBS.
[9] abbreviates: Table 3, substance in lower chamber, upper chamber peptide 51.
Setting [10] is: Table 3, substance in upper chamber, lower chamber PBS.
[11] abbreviates: 6 hours after intraperitoneal injection.
[12] abbreviates: Table 4, substance in lower chamber, upper chamber OPN.
Setting [13] is: Table 4, substance in lower chamber, upper chamber OPN(ct).
The mark [14] stands for this setting: Table 4, substance in lower chamber, upper chamber OPN(nT).
Setting [15] is: Table 4, substance in lower chamber, upper chamber PBS, averages from at least three experiments.
The mark [16] stands for this setting: Table 4, substance in upper chamber, lower chamber PBS.

With “KFHSHKDKLVLDPKSK (OTHER INFORMATION: Osteopontin Derived Peptide) [SP64]”, the “Responding cells on the lower surface of the filter” value in the experiment on osteosarcoma cells (setting [1]) is on record as 74; with osteosarcoma cells (setting [2]), 117; with osteosarcoma cells (setting [3]), 66; in the experiment with osteosarcoma cells (setting [4]) it was 40; in the experiment on osteosarcoma cells (setting [5]), 4.
For the molecule “LVLAPK (OTHER INFORMATION: Osteopontin Derived Peptide) [mutant of peptide 51 with aspartic acid replaced]”, the “Chemotactic activity (in words)” value in the experiment with osteosarcoma cells is given as “failed to induce chemotaxis”.
In the case of “LVLDPK (OTHER INFORMATION: Osteopontin derived peptide) [peptide 51, chemotactic tryptic peptide of osteopontin, also synthesized]”, the “Competition with OPN for the migration of cells” value in the experiment on osteosarcoma cells was “competes with OPN”. Besides, the “Responding cells on the lower surface of the filter” value in the experiment on osteosarcoma cells (Table 1, substance in lower chamber, upper chamber PBS) is given as 68; with osteosarcoma cells (Table 1, substance in lower chamber, upper chamber peptide 49), 83; with osteosarcoma cells (Table 1, substance in lower chamber, upper chamber peptide 50), 56; in the experiment with osteosarcoma cells (Table 1, substance in lower chamber, upper chamber peptide 51) it was 32; with osteosarcoma cells (Table 1, substance in lower chamber, upper chamber peptide 52) it was 78; in the experiment with osteosarcoma cells (Table 1, substance in lower chamber, upper chamber peptide 53), 62. In addition, the “Responding cells on the lower surface of the filter” value with osteosarcoma cells (Table 1, substance in upper chamber, lower chamber PBS) was 13; in the experiment on osteosarcoma cells (setting [1]), 88; in the experiment on osteosarcoma cells (setting [2]) it was 128; in the experiment with osteosarcoma cells (setting [3]), 47; with osteosarcoma cells (setting [4]), 51; in the experiment on osteosarcoma cells (setting [5]), 9. Further, the “Responding cells on the lower surface of the filter” value stood at 62 in the experiment with osteosarcoma cells (setting [6]); 187 in the experiment with osteosarcoma cells (setting [7]); 243 in the experiment with osteosarcoma cells (setting [8]); 109 in the experiment on osteosarcoma cells (setting [9]); 8 in the experiment with osteosarcoma cells (setting [10]). Besides, the “Chemotactic activity (in words)” value in the experiment with osteosarcoma cells is listed as “showed chemotactic properties”.
For the molecule “VLDPK (OTHER INFORMATION: Osteopontin Derived Peptide) [peptide E]”, the “Chemotactic activity (in words)” value with osteosarcoma cells is recorded as “retains some chemotactic activity”; with osteosarcoma cells (listed as VLDPK) it was “retains some chemotactic properties”.
As for osteopontin [OPN], in the experiment on peritoneal exudate cells (setting [11]), the “Dose of peak response of cellular infiltrate” value is listed as “around 13 μg”. The “Number of CD3+ and B220+ cells in the infiltrate” value with peritoneal exudate cells (setting [11]) is “only marginally elevated”. The “Number of Mac-1+ cells in the infiltrate over basal levels” value with peritoneal exudate cells (setting [11]) is “increased fivefold”. Moreover, the “Cellular infiltrate in the peritoneum (in words)” value in the experiment with peritoneal exudate cells (6 hours after intraperitoneal injection, dose titration) is “dose dependent increase”. The “Dose of peak CD44+ Mac1+ cell response” value in the experiment on peritoneal exudate cells (intraperitoneal injection) was “around 7 μg”. The “Peritoneal influx of cells” value in the experiment on peritoneal exudate cells (intraperitoneal injection, mice) came out at 1.16 million cells. In addition, the “Responding cells on the lower surface of the filter” value in the experiment with osteosarcoma cells (setting [1]) was found to be 43; with osteosarcoma cells (setting [2]), 118; in the experiment with osteosarcoma cells (setting [3]) it was 45; with osteosarcoma cells (setting [4]), 32; in the experiment with osteosarcoma cells (setting [5]), 21; in the experiment on osteosarcoma cells (setting [6]), 51. In addition, the “Responding cells on the lower surface of the filter” value in the experiment with osteosarcoma cells (setting [7]) came to 94; with osteosarcoma cells (setting [8]), 217; in the experiment on osteosarcoma cells (setting [9]), 65; in the experiment with osteosarcoma cells (setting [10]) it was 14; in the experiment on osteosarcoma cells (setting [12]), 43; in the experiment with osteosarcoma cells (setting [13]), 58. The “Responding cells on the lower surface of the filter” value in the experiment on osteosarcoma cells (setting [14]) is on record as 115; in the experiment with osteosarcoma cells (setting [15]) it was 98; with osteosarcoma cells (setting [16]), 21. Further, the “Chemotactic activity (in words)” value in the experiment with osteosarcoma cells is on record as “chemotax toward”.

B1: OPN(ct): the C-terminal half of OPN after thrombin cleavage (protein)
chain: SKSRSFQVSDEQYPDATDEDLTSHMKSGESKESLDVIPVAQLLSMPSDQDNNGKGSHESSQLDEPSLETHRLEHSKESQESADQSDVIDSQASSKASLEHQSHKFHSHKDKLVLDPKSKEDDRYLKFRISHELESSSSEVN
B1: the “Responding cells on the lower surface of the filter” value is 74 in the experiment on osteosarcoma cells (setting [12]); 31 in the experiment on osteosarcoma cells (setting [13]); 76 in the experiment on osteosarcoma cells (setting [14]); 117 with osteosarcoma cells (setting [15]); 156 in the experiment with osteosarcoma cells (setting [16]). The “Chemotactic activity (in words)” value in the experiment on osteosarcoma cells is “chemotax toward”.
